Test results reported in patent publication US20060241123A1, “Substituted piperidine and piperazine derivatives as melanocortin-4 receptor modulators” (priority 2003, published 2006).
Read-outs that look alike come from different tables or passages of the source.

Experiments:
hMC4-R [1] = target: T1, hMC4-R (Homo sapiens, UniProt P32245); experiment: Functional cellular cAMP assay, fluorescence polarization, HEK293 cells; assay type: cell-based; conditions: for % activation functional assay: compared to stimulation with NDP-alpha-MSH; for EC50: cAMP production
T1 construct: expressed in transfected cells; host or cells: HEK293 cells
T1 sequence (P32245 whole entry): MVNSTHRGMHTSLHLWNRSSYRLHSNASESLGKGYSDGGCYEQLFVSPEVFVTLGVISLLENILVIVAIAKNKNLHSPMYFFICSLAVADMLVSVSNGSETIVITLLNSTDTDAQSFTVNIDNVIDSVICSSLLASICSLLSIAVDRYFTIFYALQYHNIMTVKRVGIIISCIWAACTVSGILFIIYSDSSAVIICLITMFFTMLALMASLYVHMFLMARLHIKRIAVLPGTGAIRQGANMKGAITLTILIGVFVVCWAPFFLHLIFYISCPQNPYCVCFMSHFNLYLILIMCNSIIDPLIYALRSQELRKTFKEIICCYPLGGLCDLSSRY
Method: A functional cellular assay, based on competition between unlabeled CAMP and a fixed quantity of fluorescence labeled cAMP for a limited number of binding sites on a cAMP specific antibody, is used to discriminate melanocortin receptor agonists from antagonists by fluorescence polarization.
HEK293 cells expressing one of the human melanocortin receptors are transferred to 384 well microtiter plates, an appropriate amount of cAMP antibody is added, followed by the addition of different concentrations of the test compound to effect cAMP production. Cells are lysed and a fluorescence labeled cAMP conjugate is dispensed. The plate is read on a fluorescence polarization microplate reader and the amount of cAMP produced as a response to a test compound is compared to the production of cAMP resulting from stimulation with NDP-alpha-MSH. […]

hMC4-R [2] = target: T1, hMC4-R; experiment: Membrane binding assay, fluorescence polarization, fluorescence labeled NDP-alpha-MSH; conditions: HEK293 cell membrane preparations
Method: A membrane binding assay is used to identify competitive inhibitors of fluorescence labeled NDP-alpha-MSH binding to HEK293 cell membrane preparations expressing human melanocortin receptors.
The test compound or unlabeled NDP-alpha-MSH is dispensed at varying concentrations to a 384 well microtiter plate. Fluorescence labeled NDP-alpha-MSH is dispensed at a single concentration, followed by addition of membrane preparations. The plate is incubated for 5 h at room temperature.
The degree of fluorescence polarization is determined with a fluorescence polarization microplate reader.

male Wistar rats [3] = experiment: Spontaneous feeding paradigm, food intake in rats; assay type: in vivo, rat; conditions: for increase in cumulative food intake: compared to vehicle
Method: Food intake in rats is measured after i.p. or p.o. administration of the test compound (see e.g. Chen, A. S. et al. Transgenic Res 2000 April; 9(2):145-54).
Selected Examples of the present invention were active in the rat model at 3, 10 or 30 mg/kg after i.p. and p.o. administration of the test compound, respectively, using male Wistar rats (n=4−6).

male Wistar rats [4] = experiment: Lipopolysaccharide-induced cachexia in rats (acute model); assay type: in vivo, rat
Method: Prevention or amelioration of cachexia induced by either lipopolysaccharide (LPS) administration or by tumor growth is determined upon i.p. or p.o. administration of test compounds to rats (see e.g. Marks, D. L.; Ling, N and Cone, R. D. Cancer Res 2001 Feb. 15; 61 (4): 1432-8).
1-2 Hours prior to the onset of the dark-phase, individually housed, male Wistar rats (200-300 g) receive an ip or po application of test-compound or vehicle (2 ml/kg, 1-30 mg/kg) which is followed or preceded by an ip injection of either lipopolysaccharide (LPS) or saline (2 ml/kg, 100 μg/kg). Food intake, water intake and body weight are measured at 1-24 hour intervals and differences between experimental groups are evaluated.

melanocortin-4 receptor [5] = target: T2, melanocortin-4 receptor (Homo sapiens, UniProt P32245); conditions: cited from earlier work; for % stimulation: Bioorg. Med. Chem. Lett. 2003, 13, 3793-3796
T2 sequence (P32245 whole entry): as above

rat = conditions: i.v. or p.o.; WO0074679; cited from earlier work
[6] = J. Med. Chem. 2002, 45, 4589-4593; cited from earlier work
melanocortin-4 receptor [7] = target: T2, melanocortin-4 receptor; conditions: cited from earlier work
[8] = 3 mg/kg p.o., 4 hours following administration
[9] = 3 mg/kg p.o., 6 hours following administration
[10] = 3 mg/kg p.o., 7 hours following administration
[11] = read-out: EC50 activation of melanocortin-4 receptor, our assay system

CS(=O)(=O)N1CC2(CCN(C(=O)[C@@H](Cc3ccc(Cl)cc3)NC(=O)c3cc(=O)c4ccccc4o3)CC2)c2ccccc21 [Example 1]
activation of the melanocortin-4 receptor in the functional assay (hMC4-R [1]): does not activate | % activation functional assay (hMC4-R [1]): no activation | IC50 (hMC4-R [2]): 80 nM

CS(=O)(=O)Nc1ccccc1N1CCN(C(=O)[C@@H](Cc2ccc(Cl)cc2)NC(=O)c2cc(=O)c3ccccc3o2)CC1 [Example 8]
activation of the melanocortin-4 receptor in the functional assay (hMC4-R [1]): does not activate | % activation functional assay (hMC4-R [1]): no activation | IC50 (hMC4-R [2]): 300 nM

O=C(N[C@H](Cc1ccc(Cl)cc1)C(=O)N1CCC(Cn2cncn2)(C2CCCCC2)CC1)c1cc(=O)c2ccccc2o1 [Example 15]
EC50 (hMC4-R [1]; read-out: hMC4-R functional assay EC50/nM): 700 nM | % activation functional assay (hMC4-R [1]): 40% | food intake in spontaneous feeding paradigm (male Wistar rats [3]; 3 mg/kg p.o.): significantly increase in food intake | increase in cumulative food intake (male Wistar rats [3]; [8]): 290% | increase in cumulative food intake (male Wistar rats [3]; [9]): 186% | increase in cumulative food intake (male Wistar rats [3]; [10]): 355% | IC50 (hMC4-R [2]): 4.4 nM

CC(C)(C)NC(=O)C1(C2CCCCC2)CCN(C(=O)[C@@H](Cc2ccc(Cl)cc2)NC(=O)c2cc(=O)c3ccccc3o2)CC1 [Example 66]
activation of the melanocortin-4 receptor in the functional assay (hMC4-R [1]): no activation | % activation functional assay (hMC4-R [1]): no activation | cumulative food intake in LPS-induced cachexia (male Wistar rats [4]; 10 mg/kg p.o.): significant increase in cumulative food intake | increase in cumulative food intake (male Wistar rats [4]; 10 mg/kg p.o. in combination with LPS, 4 hours following administration, compared to LPS and vehicle): 148% | food intake in spontaneous feeding paradigm (male Wistar rats [3]; 3 mg/kg p.o.): significant increase in food intake | increase in cumulative food intake (male Wistar rats [3]; 3 mg/kg p.o., 2 hours following administration): 410% | increase in cumulative food intake (male Wistar rats [3]; [8]): 500% | increase in cumulative food intake (male Wistar rats [3]; [9]): 186% | increase in cumulative food intake (male Wistar rats [3]; [10]): 272% | IC50 (hMC4-R [2]): 6.8 nM

CS(=O)(=O)NCc1ccccc1N1CCN(C(=O)[C@@H](Cc2ccc(Cl)cc2)NC(=O)c2cc(=O)c3ccccc3o2)CC1 [Example 110]
activation of the melanocortin-4 receptor in the functional assay (hMC4-R [1]): does not activate | % activation functional assay (hMC4-R [1]): no activation | IC50 (hMC4-R [2]): 790 nM

O=C(N[C@H](Cc1ccc(Cl)cc1)C(=O)N1CCN(c2ccccc2C(=O)N2CCCCC2)CC1)c1cc(=O)c2ccccc2o1 [Example 113]
increase in cumulative food intake (male Wistar rats [3]; 30 mg/kg p.o., 2 hours following administration): 192% | increase in cumulative food intake (male Wistar rats [3]; 30 mg/kg p.o., 4 hours following administration): 159% | increase in cumulative food intake (male Wistar rats [3]; 30 mg/kg p.o., 6 hours following administration): 191% | increase in cumulative food intake (male Wistar rats [3]; 30 mg/kg p.o., 7 hours following administration): 200%

CS(=O)(=O)N1CC2(CCN(C(=O)C[C@@H](Cc3ccc(Cl)cc3)NC(=O)[C@H]3Cc4ccccc4CN3)CC2)c2ccccc21.Cl [Example 212]
increase in cumulative food intake (male Wistar rats [3]; 10 mg/kg i.p., 2 hours following administration): 708% | increase in cumulative food intake (male Wistar rats [3]; 10 mg/kg i.p., 4 hours following administration): 725% | increase in cumulative food intake (male Wistar rats [3]; 10 mg/kg i.p., 6 hours following administration): 224% | increase in cumulative food intake (male Wistar rats [3]; 10 mg/kg i.p., 8 hours following administration): 167%

O=C(NC(Cc1ccc(Cl)cc1)C(=O)N1CCC(Cn2cncn2)(C2CCCCC2)CC1)C1Cc2ccccc2CN1 (stereo not drawn) [WO0074679, example 2]
melanocortin-4 receptor activation (melanocortin-4 receptor [5]; at 10 μM, J. Med. Chem. 2002, 45, 4589-4593): activate the melanocortin-4 receptor | in vivo activity in reflexogenic erections model (rat): in vivo agonist | % activation functional assay (hMC4-R [1]): 102% | food intake [6]: significantly reduced

CS(=O)(=O)NCc1ccccc1N1CCN(C(=O)C(Cc2ccc(Cl)cc2)NC(=O)C2Cc3ccccc3CN2)CC1 (stereo not drawn) [WO02059108, example 56]
EC50 (melanocortin-4 receptor [5]; J. Med. Chem. 2004, 47, 744-755, read-out: EC50 activation of melanocortin-4 receptor): 0.048 µM | Ki (melanocortin-4 receptor [7]; J. Med. Chem. 2004, 47, 744-755): 0.21 µM

CS(=O)(=O)Nc1ccccc1N1CCN(C(=O)[C@@H](Cc2ccc(Cl)cc2)NC(=O)[C@H]2Cc3ccccc3CN2)CC1 [WO03009850, example 1, reference compound]
% stimulation (melanocortin-4 receptor [5]): 100% | EC50 (hMC4-R [1]; [11]): 3700 nM | % activation functional assay (hMC4-R [1]): 96%

CS(=O)(=O)N1CC2(CCN(C(=O)[C@@H](Cc3ccc(Cl)cc3)NC(=O)[C@H]3Cc4ccccc4CN3)CC2)c2ccccc21 [WO9964002, example 13, reference compound]
% stimulation (melanocortin-4 receptor [5]): 100% | EC50 (hMC4-R [1]; [11]): 1100 nM | % activation functional assay (hMC4-R [1]): 110% | Ki (melanocortin-4 receptor [7]; Current Topics Med. Chem. 2003, 3, 855-883): 0.01 µM | IC50 (hMC4-R [2]): 54 nM
